US20230141101A1, “PDE4 INHIBITOR COMPOUND AND MEDICAL USE THEREOF” (Suzhou Longbotai Pharmaceuticals Co., Ltd., priority 2020, published 2023)

Key:
Type in all cases: biochemical
Details in all cases: 20 nM
[1] = target: T1, PDE4B1 (Homo sapiens, UniProt Q07343); assay: PDE4 inhibitory activity assay (FAM-cAMP enzymatic reaction), PDE4B1
T1 construct: purchased BPS 60041
In short: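 Each isoform is incubated with test compound for 15 min at room temperature before FAM-cAMP substrate starts a 30-min reaction.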

[2] = target: T2, PDE4A1A (Homo sapiens, UniProt P27815); assay: PDE4 inhibitory activity assay (FAM-cAMP enzymatic reaction), PDE4A1A
T2 construct: purchased BPS 60040
T2 sequence (P27815 1-647 isoform P27815-4): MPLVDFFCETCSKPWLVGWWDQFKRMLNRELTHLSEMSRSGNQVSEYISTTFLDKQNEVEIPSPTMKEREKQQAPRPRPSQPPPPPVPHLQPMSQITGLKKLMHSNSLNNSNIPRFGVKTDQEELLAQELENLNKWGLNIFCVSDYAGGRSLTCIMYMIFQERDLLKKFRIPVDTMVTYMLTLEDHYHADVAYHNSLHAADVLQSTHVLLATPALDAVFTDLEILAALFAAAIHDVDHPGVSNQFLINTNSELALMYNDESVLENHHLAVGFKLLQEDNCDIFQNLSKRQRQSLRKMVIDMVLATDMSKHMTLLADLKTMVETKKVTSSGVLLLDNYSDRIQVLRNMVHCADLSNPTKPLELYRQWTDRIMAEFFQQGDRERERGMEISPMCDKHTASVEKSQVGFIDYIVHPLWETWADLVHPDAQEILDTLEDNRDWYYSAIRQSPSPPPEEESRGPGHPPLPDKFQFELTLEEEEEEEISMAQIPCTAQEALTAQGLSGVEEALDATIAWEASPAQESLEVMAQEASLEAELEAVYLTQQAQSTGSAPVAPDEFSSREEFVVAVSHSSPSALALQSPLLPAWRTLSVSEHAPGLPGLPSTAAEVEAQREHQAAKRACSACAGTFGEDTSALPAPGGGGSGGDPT
In short: (§1)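 Read-out: fluorescence-based detection of FAM-cAMP turnover on a multilabel counter, with IC50 derived by fitting inhibition rates. The reaction ran 30 min at room temperature after a 15-min enzyme–compound preincubation, followed by stopping and 60 min further incubation.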

[3] = target: PDE4D2 (Homo sapiens, UniProt Q08499); assay: PDE4 inhibitory activity assay (FAM-cAMP enzymatic reaction), PDE4D2
Chain of PDE4D2 (Q08499 303-809): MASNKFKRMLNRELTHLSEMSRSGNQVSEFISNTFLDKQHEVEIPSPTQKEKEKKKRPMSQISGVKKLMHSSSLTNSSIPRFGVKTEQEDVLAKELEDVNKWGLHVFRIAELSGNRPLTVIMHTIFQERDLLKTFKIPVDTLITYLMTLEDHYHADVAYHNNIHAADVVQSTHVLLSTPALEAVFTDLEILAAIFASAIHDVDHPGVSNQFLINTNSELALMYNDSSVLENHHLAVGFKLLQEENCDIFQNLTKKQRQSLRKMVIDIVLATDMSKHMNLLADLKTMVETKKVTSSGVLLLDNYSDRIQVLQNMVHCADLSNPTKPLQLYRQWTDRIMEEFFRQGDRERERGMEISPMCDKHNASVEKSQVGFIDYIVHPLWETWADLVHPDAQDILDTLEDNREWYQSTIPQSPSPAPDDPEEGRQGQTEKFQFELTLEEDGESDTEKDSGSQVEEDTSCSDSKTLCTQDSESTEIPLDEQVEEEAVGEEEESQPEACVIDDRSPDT
In short: as §1

T1 sequence (Q07343 whole entry): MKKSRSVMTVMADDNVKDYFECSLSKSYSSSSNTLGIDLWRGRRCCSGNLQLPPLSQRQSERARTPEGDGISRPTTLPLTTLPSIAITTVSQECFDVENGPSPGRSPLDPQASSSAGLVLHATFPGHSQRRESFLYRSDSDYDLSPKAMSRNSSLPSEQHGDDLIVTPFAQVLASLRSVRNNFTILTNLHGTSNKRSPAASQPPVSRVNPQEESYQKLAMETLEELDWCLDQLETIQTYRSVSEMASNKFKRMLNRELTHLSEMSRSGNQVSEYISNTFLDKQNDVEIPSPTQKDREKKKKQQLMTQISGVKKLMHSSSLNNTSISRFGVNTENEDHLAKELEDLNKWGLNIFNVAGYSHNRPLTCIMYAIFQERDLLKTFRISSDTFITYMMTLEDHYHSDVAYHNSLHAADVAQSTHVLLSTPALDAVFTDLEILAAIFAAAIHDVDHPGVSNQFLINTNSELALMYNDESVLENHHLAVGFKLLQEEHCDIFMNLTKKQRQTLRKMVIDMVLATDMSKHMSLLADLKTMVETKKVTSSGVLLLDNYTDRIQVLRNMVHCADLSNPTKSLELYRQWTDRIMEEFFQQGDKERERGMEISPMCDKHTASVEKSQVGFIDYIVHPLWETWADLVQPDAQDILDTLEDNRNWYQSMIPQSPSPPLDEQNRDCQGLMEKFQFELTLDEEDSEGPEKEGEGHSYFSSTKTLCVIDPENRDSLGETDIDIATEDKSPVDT

Row | SMILES | PDE4 B1 inhibitory effect at 20 nM [1] | PDE4 A1 inhibitory effect at 20 nM [2] | PDE4 D2 inhibitory effect at 20 nM [3]
1 | CCOc1nc([C@@H](CS(C)(=O)=O)n2c(=O)n(C)c3cc(-c4ccccc4)cnc32)ccc1OC [Ex. 77, (S)-3-(1-(6-ethoxy-5-methoxypyridin-2-yl)-2-(methylsulfonyl)ethyl)-6-phenyl-1-methyl-1H-imidazo[4,5-b]pyridin-2(3H)-one] | + | + | +
2 | CCOc1nc([C@@H](CS(C)(=O)=O)n2c(=O)n(C)c3c(C)c(-c4ccc(F)cc4)cnc32)ccc1OC(F)F [Ex. 67, (S)-3-(1-(5-(difluoromethoxy)-6-ethoxypyridin-2-yl)-2-(methylsulfonyl)ethyl)-6-(4-fluorophenyl)-1,7-dimethyl-1H-imidazo[4,5-b]pyridin-2(3H)-one] | + | + | +
3 | CCOc1nc([C@@H](CS(C)(=O)=O)n2c(=O)[nH]c3cc(-c4cc(F)c(F)cc4F)ccc32)ccc1OC [Ex. 158, (S)-5-(2,4,5-trifluorophenyl)-1-(1-(6-ethoxy-5-methoxypyridin-2-yl)-2-(methylsulfonyl)ethyl)-1H-benzo[d]imidazol-2(3H)-one] | + | + | +
4 | CCOc1nc([C@@H](CS(C)(=O)=O)N2Cc3cccc(NC(=O)C4CC4)c3C2=O)ccc1OC [Ex. 217, (S)—N-(2-(1-(6-ethoxy-5-methoxypyridin-2-yl)-2-(methylsulfonyl)ethyl)-3-oxoisoindolin-4-yl)cyclopropanecarboxamide] | + | + | +
5 | CCOc1nc([C@H](CS(C)(=O)=O)n2c(=O)n(CC(F)(F)F)c3c(C)c(-c4ccccc4)cnc32)ccc1OC [Ex. 54, (R)-3-(1-(6-ethoxy-5-methoxypyridin-2-yl)-2-(methylsulfonyl)ethyl)-7-methyl-6-phenyl-1-(2,2,2-trifluoroethyl)-1H-imidazo[4,5-b]pyridin-2(3H)-one] | − | − | −
6 | CCOc1nc([C@@H](CS(C)(=O)=O)n2c(=O)[nH]c3cc(-c4cc(F)ccc4OC)ccc32)ccc1OC [Ex. 186, (S)-5-(5-fluoro-2-methoxyphenyl)-1-(1-(6-ethoxy-5-methoxypyridin-2-yl)-2-(methylsulfonyl)ethyl)-1H-benzo[d]imidazol-2(3H)-one] | + | + | +
7 | CCOc1nc([C@@H](CS(C)(=O)=O)n2c(=O)n(C)c3cc(-c4cc(F)c(F)cc4F)ccc32)ccc1OC [Ex. 159, (S)-5-(2,4,5-trifluorophenyl)-1-(1-(6-ethoxy-5-methoxypyridin-2-yl)-2-(methylsulfonyl)ethyl)-3-methyl-1H-benzo[d]imidazol-2(3H)-one] | + | + | +
8 | CCOc1nc([C@@H](CS(C)(=O)=O)n2c(=O)n(C)c3cc(-c4cc(F)c(F)cc4F)cnc32)ccc1OC [Ex. 97, (S)-6-(2,4,5-trifluorophenyl)-3-(1-(6-ethoxy-5-methoxypyridin-2-yl)-2-(methylsulfonyl)ethyl)-1-methyl-1H-imidazo[4,5-b]pyridin-2(3H)-one] | + | + | +
9 | CCOc1nc([C@@H](CS(C)(=O)=O)n2c(=O)n(C3CC3)c3cc(C(F)(F)F)ccc32)ccc1OC [Ex. 211, (S)-3-cyclopropyl-1-(1-(6-ethoxy-5-methoxypyridin-2-yl)-2-(methylsulfonyl)ethyl)-5-(trifluoromethyl)-1H-benzo[d]imidazol-2(3H)-one] | + | + | +

Results, then the compound that gave them:

Row | PDE4 B1 inhibitory effect at 20 nM [1] | PDE4 A1 inhibitory effect at 20 nM [2] | PDE4 D2 inhibitory effect at 20 nM [3] | SMILES
10 | + | + | + | CCOc1nc([C@@H](CS(C)(=O)=O)n2c(=O)n(C)c3c(C)c(-c4ccccc4F)cnc32)ccc1OC(F)F [Ex. 65, (S)-3-(1-(5-(difluoromethoxy)-6-ethoxypyridin-2-yl)-2-(methylsulfonyl)ethyl)-6-(2-fluorophenyl)-1,7-dimethyl-1H-imidazo[4,5-b]pyridin-2(3H)-one]
11 | + | + | + | CCOc1nc([C@@H](CS(C)(=O)=O)n2c(=O)n(CC(F)F)c3c(C)c(-c4ccccc4F)cnc32)ccc1OC(C)C [Ex. 69, (S)-1-(2,2-difluoroethyl)-3-(1-(6-ethoxy-5-isopropoxypyridin-2-yl)-2-(methylsulfonyl)ethyl)-6-(2-fluorophenyl)-7-methyl-1H-imidazo[4,5-b]pyridin-2(3H)-one]
12 | + | + | + | CCOc1nc([C@@H](CS(C)(=O)=O)n2c(=O)n(CC(F)F)c3c(C)c(-c4ccccc4C)cnc32)ccc1OC [Ex. 59, (S)-1-(2,2-difluoroethyl)-3-(1-(6-ethoxy-5-methoxypyridin-2-yl)-2-(methylsulfonyl)ethyl)-7-methyl-6-(o-methylphenyl)-1H-imidazo[4,5-b]pyridin-2(3H)-one]
13 | + | + | + | CCOc1nc([C@@H](CS(C)(=O)=O)n2c(=O)[nH]c3c(C)c(-c4cccc(F)c4F)cnc32)ccc1OC [Ex. 25, (S)-6-(2,3-difluorophenyl)-3-(1-(6-ethoxy-5-methoxypyridin-2-yl)-2-(methylsulfonyl)ethyl)-7-methyl-1H-imidazo[4,5-b]pyridin-2(3H)-one]
14 | + | + | + | CCOc1nc([C@@H](CS(C)(=O)=O)n2c(=O)[nH]c3cc(-c4ccccc4C4CC4)cnc32)ccc1OC [Ex. 87, (S)-6-(2-cyclopropylphenyl)-3-(1-(6-ethoxy-5-methoxypyridin-2-yl)-2-(methylsulfonyl)ethyl)-1H-imidazo[4,5-b]pyridin-2(3H)-one]
15 | + | + | + | CCOc1nc([C@@H](CS(C)(=O)=O)n2c(=O)[nH]c3c(C)c(-c4ccccc4F)cnc32)ccc1OC(F)F [Ex. 60, (S)-3-(1-(5-(difluoromethoxy)-6-ethoxypyridin-2-yl)-2-(methylsulfonyl)ethyl)-6-(2-fluorophenyl)-7-methyl-1H-imidazo[4,5-b]pyridin-2(3H)-one]
16 | + | + | + | CCOc1nc([C@@H](CS(C)(=O)=O)n2c(=O)[nH]c3cc(-c4cc(C)ccc4C)cnc32)ccc1OC [Ex. 101, (S)-6-(2,5-dimethylphenyl)-3-(1-(6-ethoxy-5-methoxypyridin-2-yl)-2-(methylsulfonyl)ethyl)-1H-imidazo[4,5-b]pyridin-2(3H)-one]
17 | + | + | = | CCOc1nc([C@@H](CS(C)(=O)=O)n2c(=O)[nH]c3c(C)c(-c4ccccn4)cnc32)ccc1OC [Ex. 17, (S)-3-(1-(6-ethoxy-5-methoxypyridin-2-yl)-2-(methylsulfonyl)ethyl)-7-methyl-6-(pyridin-2-yl)-1H-imidazo[4,5-b]pyridin-2(3H)-one]
18 | − | − | − | CCOc1nc([C@H](CS(C)(=O)=O)n2c(=O)n(C)c3c(C)c(-c4ccccc4F)cnc32)ccc1OC [Ex. 22]
19 | + | + | + | CCOc1nc([C@@H](CS(C)(=O)=O)n2c(=O)[nH]c3c(C)c(-c4cc(F)ccc4C)cnc32)ccc1OC [Ex. 36, (S)-6-(5-fluoro-2-methylphenyl)-3-(1-(6-ethoxy-5-methoxypyridin-2-yl)-2-(methylsulfonyl)ethyl)-7-methyl-1H-imidazo[4,5-b]pyridin-2(3H)-one]
20 | + | + | + | CCOc1nc([C@@H](CS(C)(=O)=O)n2c(=O)[nH]c3c(-c4ccccc4C)cccc32)ccc1OC [Ex. 204, (S)-1-(1-(6-ethoxy-5-methoxypyridin-2-yl)-2-(methylsulfonyl)ethyl)-4-(o-methylphenyl)-1H-benzo[d]imidazol-2(3H)-one]
21 | + | + | + | CCOc1nc([C@@H](CS(C)(=O)=O)n2c(=O)[nH]c3c(C)c(-c4cc(F)c(F)cc4F)cnc32)ccc1OC [Ex. 29, (S)-6-(2,4,5-trifluorophenyl)-3-(1-(6-ethoxy-5-methoxypyridin-2-yl)-2-(methylsulfonyl)ethyl)-7-methyl-1H-imidazo[4,5-b]pyridin-2(3H)-one]
22 | + | + | + | CCOc1nc([C@@H](CS(C)(=O)=O)n2c(=O)[nH]c3cc(-c4c(F)cccc4F)ccc32)ccc1OC [Ex. 154, (S)-5-(2,6-difluorophenyl)-1-(1-(6-ethoxy-5-methoxypyridin-2-yl)-2-(methylsulfonyl)ethyl)-1H-benzo[d]imidazol-2(3H)-one]
